Measured values as given in PubChem BioAssay AID330 (DTP/NCI, 2004).
Where “and” joins values, the source holds several entries; their conditions need not be identical. Equal entries are not always repeated. Toxic doses and inconclusive results are not listed. The calls were made as follows: active = survival T/C of 150% or more; inactive = T/C below 125% in these data. Peptide text beside a SMILES is read from it. * marks the point of attachment. Boc = CC(C)(C)OC(=O)*; NHNH2 = NN*

Test system: P388 leukemia ip, CD2F1 mice, survival T/C
Assay: NCI In Vivo Anticancer Drug Screen. Data for tumor model P388 Leukemia (intraperitoneal) in CD2F1 (CDF1) mice
Details: endpoint: median survival time, higher = longer survival
Outline: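 Mice carrying the transplanted tumor received test compound or vehicle. Survival was recorded in each group, and the value is the treated-group measurement divided by that of the vehicle-treated control group.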

[1] = dose: 50.0 mg/kg/injection, schedule: Q01DX005 (ip), vehicle: Klucel (hydroxypropylcellulose) (HPC)
[2] = dose: 200.0 mg/kg/injection, schedule: Q01DX009 (ip), vehicle: saline with Tween-80
[3] = dose: 60.0 mg/kg/injection, schedule: Q01DX005 (ip), vehicle: saline
[4] = dose: 120.0 mg/kg/injection, schedule: Q01DX005 (ip), vehicle: saline
[5] = dose: 240.0 mg/kg/injection, schedule: Q01DX005 (ip), vehicle: saline
[6] = dose: 50.0 mg/kg/injection, schedule: Q01DX005 (ip), vehicle: saline with Tween-80
[7] = dose: 100.0 mg/kg/injection, schedule: Q01DX005 (ip), vehicle: saline with Tween-80
[8] = dose: 200.0 mg/kg/injection, schedule: Q01DX005 (ip), vehicle: saline with Tween-80
[9] = dose: 50.0 mg/kg/injection, schedule: Q01DX009 (ip), vehicle: saline with Tween-80
[10] = dose: 100.0 mg/kg/injection, schedule: Q01DX009 (ip), vehicle: saline with Tween-80
[11] = dose: 6.25 mg/kg/injection, schedule: Q01DX009 (ip), vehicle: saline

Measured: T/C

c1ccc(Cn2cccc/c2=N/C(=NC2CCCCC2)NC2CCCCC2)cc1
inactive: dose: 1.56 mg/kg/injection, schedule: Q01DX001 (ip), vehicle: Klucel (hydroxypropylcellulose) (HPC) 105 % of control | dose: 3.12 mg/kg/injection, schedule: Q01DX001 (ip), vehicle: Klucel (hydroxypropylcellulose) (HPC) 99 % of control | dose: 6.25 mg/kg/injection, schedule: Q01DX001 (ip), vehicle: Klucel (hydroxypropylcellulose) (HPC) 99 % of control | dose: 25.0 mg/kg/injection, schedule: Q01DX001 (ip), vehicle: Klucel (hydroxypropylcellulose) (HPC) 98 % of control

CCCCCCC(=O)C(=O)c1ccc(O)cc1O
inactive: dose: 50.0 mg/kg/injection, schedule: Q01DX009 (ip), vehicle: Klucel (hydroxypropylcellulose) (HPC) 113 % of control | dose: 100.0 mg/kg/injection, schedule: Q01DX009 (ip), vehicle: Klucel (hydroxypropylcellulose) (HPC) 109 % of control | dose: 200.0 mg/kg/injection, schedule: Q01DX009 (ip), vehicle: Klucel (hydroxypropylcellulose) (HPC) 109 % of control

O[Si](c1ccccc1)(c1ccccc1)c1ccccc1.O[Si](c1ccccc1)(c1ccccc1)c1ccccc1.O[Si](c1ccccc1)(c1ccccc1)c1ccccc1.[O]=[V]
inactive: [1] 92 % of control | dose: 100.0 mg/kg/injection, schedule: Q01DX005 (ip), vehicle: Klucel (hydroxypropylcellulose) (HPC) 90 % of control | dose: 200.0 mg/kg/injection, schedule: Q01DX005 (ip), vehicle: Klucel (hydroxypropylcellulose) (HPC) 92 % of control

OCC1OC(n2cnc3c(SCc4ccccc4)ncnc32)C(O)C1O (configuration not stated)
inactive: dose: 88.0 mg/kg/injection, schedule: Q01DX009 (ip), vehicle: saline with Tween-80 100 % of control | dose: 132.0 mg/kg/injection, schedule: Q01DX009 (ip), vehicle: saline with Tween-80 95 % of control | [2] 86 % of control

COc1ccc(C2c3cc4c(cc3OC(C)(O)C2C)OCO4)c(OC)c1 (configuration not stated)
inactive: dose: 60.0 mg/kg/injection, schedule: Q01DX005 (ip), vehicle: Klucel (hydroxypropylcellulose) (HPC) 98 % of control | dose: 120.0 mg/kg/injection, schedule: Q01DX005 (ip), vehicle: Klucel (hydroxypropylcellulose) (HPC) 97 % of control | dose: 240.0 mg/kg/injection, schedule: Q01DX005 (ip), vehicle: Klucel (hydroxypropylcellulose) (HPC) 100 % of control

CCCCOc1ccc2nccc(N/N=C/c3ccc(OC)c4ccccc34)c2c1
inactive: dose: 12.5 mg/kg/injection, schedule: Q01DX005 (ip), vehicle: Klucel (hydroxypropylcellulose) (HPC) 88 % of control | dose: 25.0 mg/kg/injection, schedule: Q01DX005 (ip), vehicle: Klucel (hydroxypropylcellulose) (HPC) 88 % of control | [1] 92 % of control and 94 % of control

CCCOc1ccccc1NC(=O)CN1CCCC1
inactive: [3] 104 % of control | [4] 106 % of control | [5] 116 % of control

CCC(c1ccc(O)cc1)c1cc2c(cc1OCCO)OCO2 (configuration not stated)
inactive: [6] 95 % of control | [7] 98 % of control | [8] 95 % of control

COC(=O)c1ccc(N)c2c(N)ccc(C(=O)OC)c12
inactive: dose: 60.0 mg/kg/injection, schedule: Q01DX005 (ip), vehicle: saline with Tween-80 98 % of control | dose: 120.0 mg/kg/injection, schedule: Q01DX005 (ip), vehicle: saline with Tween-80 114 % of control | dose: 240.0 mg/kg/injection, schedule: Q01DX005 (ip), vehicle: saline with Tween-80 97 % of control

Cn1nnnc1NN(c1nnnn1C)C1C=CCC=C1
inactive: dose: 100.0 mg/kg/injection, schedule: Q04DX003 (ip), vehicle: saline with Tween-80 99 % of control | dose: 200.0 mg/kg/injection, schedule: Q04DX003 (ip), vehicle: saline with Tween-80 97 % of control | dose: 400.0 mg/kg/injection, schedule: Q04DX003 (ip), vehicle: saline with Tween-80 98 % of control

COC(=O)CN1C(=O)c2cccc3cc(N)cc(c23)C1=O
inactive: [7] 87 % of control

c1ccc([P+](c2ccccc2)(c2ccccc2)c2ccccc2)cc1
inactive: dose: 0.63 mg/kg/injection, schedule: Q04DX003 (ip), vehicle: saline 100 % of control | dose: 1.25 mg/kg/injection, schedule: Q04DX003 (ip), vehicle: saline 118 % of control | dose: 2.5 mg/kg/injection, schedule: Q04DX003 (ip), vehicle: saline 122 % of control | dose: 3.3 mg/kg/injection, schedule: Q04DX003 (ip), vehicle: saline 122 % of control

CC(=O)OC(CCl)C1OC(CCl)C(OC(C)=O)O1 (configuration not stated)
inactive: [9] 103 % of control | [10] 103 % of control | [2] 102 % of control

O=c1n(-c2ccccc2)c(=O)n2n1C1C3C4C5C3C2C5(F)C41 (configuration not stated)
inactive: dose: 100.0 mg/kg/injection, schedule: Q04DX003 (ip), vehicle: Klucel (hydroxypropylcellulose) (HPC) 103 % of control | dose: 200.0 mg/kg/injection, schedule: Q04DX003 (ip), vehicle: Klucel (hydroxypropylcellulose) (HPC) 104 % of control

CNCCc1ccc2cc(OC)c(OC)cc2c1
inactive: dose: 25.0 mg/kg/injection, schedule: Q01DX009 (ip), vehicle: saline with Tween-80 90 % of control | [9] 100 % of control | [10] 100 % of control

CC(C)(C)OC(=O)NC(Cc1c[nH]c2ccccc12)C(=O)NC(Cc1c[nH]c2ccccc12)C(=O)NN (stereo not drawn) (Boc-Trp-Trp-NHNH2; configuration not given here)
inactive: dose: 12.5 mg/kg/injection, schedule: Q01DX009 (ip), vehicle: other 94 % of control | dose: 25.0 mg/kg/injection, schedule: Q01DX009 (ip), vehicle: other 94 % of control | dose: 50.0 mg/kg/injection, schedule: Q01DX009 (ip), vehicle: other 91 % of control | dose: 100.0 mg/kg/injection, schedule: Q01DX009 (ip), vehicle: other 91 % of control | dose: 200.0 mg/kg/injection, schedule: Q01DX009 (ip), vehicle: other 107 % of control

ClC1=C(Cl)C2(Cl)C3C4CC(C5OC45)C3N1C2(Cl)Cl (configuration not stated)
inactive: dose: 100.0 mg/kg/injection, schedule: Q01DX001 (ip), vehicle: saline with Tween-80 109 % of control | dose: 200.0 mg/kg/injection, schedule: Q01DX001 (ip), vehicle: saline with Tween-80 103 % of control

CCCCOP(O)(=S)OCCCC.[Fe]
inactive: dose: 50.0 mg/kg/injection, schedule: Q01DX001 (ip), vehicle: Klucel (hydroxypropylcellulose) (HPC) 102 % of control | dose: 100.0 mg/kg/injection, schedule: Q01DX001 (ip), vehicle: Klucel (hydroxypropylcellulose) (HPC) 102 % of control | dose: 200.0 mg/kg/injection, schedule: Q01DX001 (ip), vehicle: Klucel (hydroxypropylcellulose) (HPC) 101 % of control

COC(=O)n1nnc2ncccc21
inactive: [3] 101 % of control | [4] 100 % of control | [5] 92 % of control

CCCCCCCCCCCCCCCCCC[N+]1(CC)CCCC1
inactive: [11] 97 % of control | dose: 12.5 mg/kg/injection, schedule: Q01DX009 (ip), vehicle: saline 97 % of control | dose: 25.0 mg/kg/injection, schedule: Q01DX009 (ip), vehicle: saline 97 % of control

COc1cccc(OC)c1C(c1c(OC)cccc1OC)c1c(OC)cccc1OC
inactive: dose: 22.0 mg/kg/injection, schedule: Q04DX003 (ip), vehicle: saline with Tween-80 109 % of control | dose: 33.0 mg/kg/injection, schedule: Q04DX003 (ip), vehicle: saline with Tween-80 113 % of control | dose: 75.0 mg/kg/injection, schedule: Q04DX003 (ip), vehicle: saline with Tween-80 109 % of control

COc1cccc(OC)c1C(=O)Nc1cccc(NC(=O)c2c(OC)cccc2OC)n1
inactive: [6] 95 % of control | [7] 93 % of control | [8] 93 % of control

COc1ccc(CCCNC(=O)Cc2ccccc2)cc1OC
inactive: [9] 92 % of control | [10] 92 % of control | [2] 91 % of control

CCCCCCOc1ccc(OCCCC[N+]2(CC)CCCCC2)cc1
inactive: dose: 1.56 mg/kg/injection, schedule: Q01DX009 (ip), vehicle: saline 105 % of control | dose: 3.12 mg/kg/injection, schedule: Q01DX009 (ip), vehicle: saline 106 % of control | [11] 104 % of control
